Several values for one entry are separate records, joined by “and”; a condition that tells them apart may be missing. Equal entries are not always repeated. Toxic doses and inconclusive results are not listed.
Tested on: P388 leukemia ip, CD2F1 mice, survival T/C
Assay: NCI In Vivo Anticancer Drug Screen. Data for tumor model P388 Leukemia (intraperitoneal) in CD2F1 (CDF1) mice
Conditions: endpoint: median survival time, higher = longer survival
How it was run: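 Mice carrying the transplanted tumor received test compound or vehicle. Survival was recorded in each group, and the value is the treated-group measurement divided by that of the vehicle-treated control group.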

[1] = dose: 50.0 mg/kg/injection, schedule: Q01DX005 (ip), vehicle: saline with Tween-80
[2] = dose: 100.0 mg/kg/injection, schedule: Q01DX005 (ip), vehicle: saline with Tween-80
[3] = dose: 200.0 mg/kg/injection, schedule: Q01DX005 (ip), vehicle: saline with Tween-80
[4] = dose: 50.0 mg/kg/injection, schedule: Q01DX009 (ip), vehicle: saline
[5] = dose: 100.0 mg/kg/injection, schedule: Q01DX009 (ip), vehicle: saline
[6] = dose: 200.0 mg/kg/injection, schedule: Q01DX009 (ip), vehicle: saline
[7] = dose: 50.0 mg/kg/injection, schedule: Q01DX009 (ip), vehicle: saline with Tween-80
[8] = dose: 100.0 mg/kg/injection, schedule: Q01DX009 (ip), vehicle: saline with Tween-80
[9] = dose: 200.0 mg/kg/injection, schedule: Q01DX009 (ip), vehicle: saline with Tween-80
[10] = dose: 25.0 mg/kg/injection, schedule: Q01DX009 (ip), vehicle: saline with Tween-80
[11] = dose: 50.0 mg/kg/injection, schedule: Q01DX005 (ip), vehicle: Klucel (hydroxypropylcellulose) (HPC)
[12] = dose: 60.0 mg/kg/injection, schedule: Q01DX005 (ip), vehicle: saline with Tween-80
[13] = dose: 120.0 mg/kg/injection, schedule: Q01DX005 (ip), vehicle: saline with Tween-80

Compound: CN(C)CCCn1c2c(c3ccccc31)CCCCC2
- T/C [1]: 97 % of control
- T/C [2]: 101 % of control
- T/C [3]: 94 % of control

Compound: CC(Cl)C(Cl)(Cl)/C=C\[N+](=O)[O-] (configuration not stated)
- T/C [4]: 103 % of control
- T/C [5]: 102 % of control
- T/C [6]: 98 % of control

Compound: Cc1ccnc(NC2=CC(=O)C(=O)c3ccccc32)c1
- T/C (dose: 37.5 mg/kg/injection, schedule: Q01DX009 (ip), vehicle: saline sonified): 122 % of control

Compound: N#CN=CN(Cc1ccccc1)Cc1ccccc1
- T/C [7]: 101 % of control
- T/C [8]: 96 % of control
- T/C [9]: 93 % of control

Compound: CSc1cccc(NC(=O)Nc2ccccc2C(N)=O)c1
- T/C (dose: 50.0 mg/kg/injection, schedule: Q01DX009 (ip), vehicle: Klucel (hydroxypropylcellulose) (HPC)): 94 % of control
- T/C (dose: 100.0 mg/kg/injection, schedule: Q01DX009 (ip), vehicle: Klucel (hydroxypropylcellulose) (HPC)): 103 % of control
- T/C (dose: 200.0 mg/kg/injection, schedule: Q01DX009 (ip), vehicle: Klucel (hydroxypropylcellulose) (HPC)): 94 % of control

Compound: O=[N+]([O-])c1cccc(C(O)(C(F)(F)F)C(F)(F)F)c1
- T/C [10]: 95 % of control
- T/C [7]: 97 % of control
- T/C [8]: 106 % of control
- T/C (dose: 100.0 mg/kg/injection, schedule: Q04DX002 (ip), vehicle: suspension in saline): 112 % of control
- T/C [9]: 98 % of control

Compound: CCN(CC)CCCC(C)Nc1cc(OC)c2nc(C)cc(OC)c2c1OC (configuration not stated)
- T/C (dose: 1.56 mg/kg/injection, schedule: Q01DX009 (ip), vehicle: saline): 100 % of control
- T/C (dose: 3.12 mg/kg/injection, schedule: Q01DX009 (ip), vehicle: saline): 89 % of control
- T/C (dose: 6.25 mg/kg/injection, schedule: Q01DX009 (ip), vehicle: saline): 91 % of control and 97 % of control

Compound: Cc1cccc(Nc2nc(C)nc3[nH]c(Cc4ccccc4)c(C)c23)c1
- T/C [11]: 86 % of control
- T/C (dose: 100.0 mg/kg/injection, schedule: Q01DX005 (ip), vehicle: Klucel (hydroxypropylcellulose) (HPC)): 86 % of control
- T/C (dose: 200.0 mg/kg/injection, schedule: Q01DX005 (ip), vehicle: Klucel (hydroxypropylcellulose) (HPC)): 88 % of control

Compound: NNc1nncn2c1cc1ccccc12
- T/C (dose: 6.25 mg/kg/injection, schedule: Q01DX009 (ip), vehicle: saline with Tween-80): 98 % of control
- T/C (dose: 12.5 mg/kg/injection, schedule: Q01DX009 (ip), vehicle: saline with Tween-80): 95 % of control
- T/C [10]: 92 % of control

Compound: CCC(C)C(F)C(=O)O (configuration not stated)
- T/C [1]: 98 % of control
- T/C [2]: 88 % of control

Compound: C/C(=C\Cc1cc(O)c(C)cc1O)CC/C=C(\C)Cc1cc(C)co1
- T/C (dose: 4.0 mg/kg/injection, schedule: Q01DX009 (ip), vehicle: Klucel (hydroxypropylcellulose) (HPC)): 93 % of control
- T/C (dose: 8.0 mg/kg/injection, schedule: Q01DX009 (ip), vehicle: Klucel (hydroxypropylcellulose) (HPC)): 101 % of control
- T/C (dose: 16.0 mg/kg/injection, schedule: Q01DX009 (ip), vehicle: Klucel (hydroxypropylcellulose) (HPC)): 101 % of control
- T/C (dose: 32.0 mg/kg/injection, schedule: Q01DX009 (ip), vehicle: Klucel (hydroxypropylcellulose) (HPC)): 108 % of control

Compound: CCC1CC(O)c2c(O)c3c(c(O)c2C1O)C(=O)c1cccc(O)c1C3=O (configuration not stated) (tested in a mixture with another compound)
- T/C (dose: 0.25 mg/kg/injection, schedule: Q04DX003 (ip), vehicle: other): 102 % of control
- T/C (dose: 30.0 micrograms/kg/injection, schedule: Q01DX009 (ip), vehicle: other): 107 % of control
- T/C (dose: 60.0 micrograms/kg/injection, schedule: Q01DX009 (ip), vehicle: other): 106 % of control
- T/C (dose: 130.0 micrograms/kg/injection, schedule: Q01DX009 (ip), vehicle: other): 98 % of control

Compound: COCCNC(=S)SCCN(C(C)C)C(C)C
- T/C [1]: 104 % of control
- T/C [2]: 106 % of control

Compound: CN(C)CCS(=O)(=O)O
- T/C (dose: 1.56 mg/kg/injection, schedule: Q04DX003 (ip), vehicle: saline): 100 % of control
- T/C (dose: 3.12 mg/kg/injection, schedule: Q04DX003 (ip), vehicle: saline): 100 % of control
- T/C (dose: 6.25 mg/kg/injection, schedule: Q04DX003 (ip), vehicle: saline): 88 % of control
- T/C (dose: 12.5 mg/kg/injection, schedule: Q04DX003 (ip), vehicle: saline): 94 % of control
- T/C (dose: 50.0 mg/kg/injection, schedule: Q04DX003 (ip), vehicle: saline): 97 % of control
- T/C (dose: 100.0 mg/kg/injection, schedule: Q04DX003 (ip), vehicle: saline): 102 % of control

Compound: Cc1nc2[nH]cc(-c3ccccc3)c2c(=N)n1-c1ccccc1
- T/C (dose: 12.5 mg/kg/injection, schedule: Q01DX005 (ip), vehicle: Klucel (hydroxypropylcellulose) (HPC)): 102 % of control
- T/C (dose: 25.0 mg/kg/injection, schedule: Q01DX005 (ip), vehicle: Klucel (hydroxypropylcellulose) (HPC)): 106 % of control
- T/C [11]: 100 % of control and 104 % of control

Compound: CCCCCOn1nnc2ccccc21
- T/C (dose: 100.0 mg/kg/injection, schedule: Q04DX003 (ip), vehicle: saline with Tween-80): 101 % of control
- T/C (dose: 200.0 mg/kg/injection, schedule: Q04DX003 (ip), vehicle: saline with Tween-80): 101 % of control
- T/C (dose: 400.0 mg/kg/injection, schedule: Q04DX003 (ip), vehicle: saline with Tween-80): 101 % of control

Compound: COc1ccc(C2C3C(=O)NC(=O)C2C(=O)NC3=O)cc1OC (configuration not stated)
- T/C (dose: 60.0 mg/kg/injection, schedule: Q01DX005 (ip), vehicle: saline): 101 % of control
- T/C (dose: 120.0 mg/kg/injection, schedule: Q01DX005 (ip), vehicle: saline): 108 % of control
- T/C (dose: 240.0 mg/kg/injection, schedule: Q01DX005 (ip), vehicle: saline): 90 % of control

Compound: CN(C)c1ccc(/C=N/NC(=O)COc2ccccc2)cc1
- T/C (dose: 15.0 mg/kg/injection, schedule: Q01DX005 (ip), vehicle: saline with Tween-80): 98 % of control
- T/C (dose: 30.0 mg/kg/injection, schedule: Q01DX005 (ip), vehicle: saline with Tween-80): 88 % of control
- T/C [12]: 88 % of control

Compound: O=C(/C=C/c1ccccc1)O[C@@H]1CC2CC1C[C@H]2c1cnc[nH]1 (some centres not stated)
- T/C (dose: 25.0 mg/kg/injection, schedule: Q04DX002 (ip), vehicle: saline with Tween-80): 100 % of control
- T/C (dose: 50.0 mg/kg/injection, schedule: Q04DX002 (ip), vehicle: saline with Tween-80): 101 % of control
- T/C (dose: 100.0 mg/kg/injection, schedule: Q04DX002 (ip), vehicle: saline with Tween-80): 92 % of control

Compound: CC(CCC(=O)O)(c1ccc(OC(=O)Nc2ccccc2Cl)cc1)c1ccc(OC(=O)Nc2ccccc2Cl)cc1
- T/C [1]: 118 % of control
- T/C [2]: 102 % of control
- T/C [3]: 109 % of control

Compound: [C-]#[N+]C1CCCCC1.[C-]#[N+]C1CCCCC1.[C-]#[N+]C1CCCCC1.[C-]#[N+]C1CCCCC1.[C-]#[N+]C1CCCCC1.[C-]#[N+]C1CCCCC1.[Mn]
- T/C (dose: 0.75 mg/kg/injection, schedule: Q01DX009 (ip), vehicle: saline with Tween-80): 155 % of control and 159 % of control

Compound: O=Nc1ccc(Cn2cc(Br)c(=O)[nH]c2=O)o1
- T/C (dose: 25.0 mg/kg/injection, schedule: Q01DX001 (ip), vehicle: Klucel (hydroxypropylcellulose) (HPC)): 113 % of control
- T/C (dose: 50.0 mg/kg/injection, schedule: Q01DX001 (ip), vehicle: Klucel (hydroxypropylcellulose) (HPC)): 100 % of control
- T/C (dose: 100.0 mg/kg/injection, schedule: Q01DX001 (ip), vehicle: Klucel (hydroxypropylcellulose) (HPC)): 108 % of control

Compound: CCOC(=O)c1cn(CC)c2cc(-n3cccc3)c(F)cc2c1=O
- T/C [12]: 98 % of control
- T/C [13]: 97 % of control
- T/C (dose: 240.0 mg/kg/injection, schedule: Q01DX005 (ip), vehicle: saline with Tween-80): 94 % of control

Compound: COC(=O)c1nc(N)nc(C(=O)OC)c1C(=O)C(C)(C)C
- T/C [12]: 96 % of control
- T/C [13]: 96 % of control

Compound: NC(N)=N/N=C/c1c2ccccc2cc2ccccc12
- T/C (dose: 6.25 mg/kg/injection, schedule: Q01DX005 (ip), vehicle: saline with Tween-80): 100 % of control and 101 % of control
- T/C (dose: 12.5 mg/kg/injection, schedule: Q01DX005 (ip), vehicle: saline with Tween-80): 107 % of control and 109 % of control and 121 % of control
- T/C (dose: 25.0 mg/kg/injection, schedule: Q01DX005 (ip), vehicle: saline with Tween-80): 104 % of control and 113 % of control and 121 % of control

Compound: C/C(=N\NC(=S)Nc1ccc(C(=O)O)cc1C)c1ccc2ccccc2n1
- T/C [1]: 109 % of control
- T/C [2]: 107 % of control
- T/C [3]: 119 % of control

Compound: CC1(C)OCC(N)(CO)CO1
- T/C [4]: 107 % of control
- T/C [5]: 102 % of control
- T/C [6]: 98 % of control
- T/C (dose: 400.0 mg/kg/injection, schedule: Q01DX009 (ip), vehicle: saline): 98 % of control

— PubChem BioAssay AID330 (DTP/NCI, 2004)
